“Also recorded” adds a separate entry of the source.
Experiments:
[1] = molecular target: yeast α-glucosidase; experiment: α-glucosidase inhibition assay, dilution series for IC50 determination (PNPG substrate); assay type: biochemical, Saccharomyces cerevisiae; settings: for IC50: isolated compounds, means ± SD of triplicate experiments
Protocol: (§1) Methanol and ethyl acetate used for extraction were purchased from Tedia (Fairfield, OH, USA). Formic acid was obtained from Merck (Darmstadt, Germany) and water was prepared by a deionization and 0.22-µm membrane filtration system (Milipore, Billerica, MA, USA).
(§2) Microfractionation was performed with an Agilent 1200 series instrument (Santa Clara, CA, USA) consisting of a G1316A quartenary pump, a G1322A degasser, a G1316A thermostatted column compartment, a G1315C photodiode-array detector, a G1364C fraction collector, and a G1367C high-performance auto sampler, controlled by Agilent ChemStation ver. B.03.02 software. The columns used were a Phenomenex C18(2) Luna (150 mm × 4.6 mm, 3 μm particle size, 100 Å pore size) and a Phenomenex PFP Kinetex (150 mm × 4.6 mm, 2.6 μm particle size, 100 Å pore size). For fractionation of the crude defatted ethyl acetate extract of E. crotonoides (injection: 4 μL; concentration: 100 mg/mL) the temperature was maintained at 40 °C and the flow rate at 0.5 mL/min. The solvents were a binary gradient mixture of water–acetonitrile (95:5 v/v) as eluent A and acetonitrile–water (95:5 v/v) as eluent B, both acidified with 0.1% formic acid. The following elution profile was used: 0 min, 10% B; 35 min, 26% B; 50 min, 35% B; 60 min, 40% B; 90 min, 100% B, and the eluate from 3 to 78 min was fractionated into four 96-well microplates, leading to a resolution of 4.7 data points per min. For fractionation of Fr.2 (injection: 2 μL; concentration: 33 mg/mL) the same conditions as described above were used, but with methanol and the PFP column instead of acetonitrile and the C18 column. The eluate from 8 to 30 min was fractionated into one 96-well microplate (resolution: 4.0 data points per min) using the following gradient: 0 min, 50% B; 3 min, 50% B; 34 min, 59% B; 35 min 100% B; 38 min, 100% B. The collected fractions were evaporated to dryness using a Savant SPD121P speed vacuum concentrator coupled with a RVT400 refrigerated vapor trap and an OFP-400 oil free pump (Holbrook, NY, USA). The α-glucosidase inhibitiory activity of the fractions was determined according to the previously described procedure. Briefly, the content of each well was dissolved in 100 μL of 0.1 M phosphate buffer containing 10% of DMSO and added 80 μL of the α-glucosidase solution. After incubation at 28 °C for 10 min the reaction was initiated by addition of 20 μL of PNPG (10 mM in phosphate buffer) (final volume = 200 μL and final DMSO = 5%). The cleavage product of PNPG was monitored at 405 nm for 35 min using a Multiskan FC microplate photometer (Thermo Scientific, Waltham, MA, USA) and the percentage enzyme inhibition was calculated. The α-glucosidase inhibition of each well was plotted at their respective retention times underneath the HPLC chromatogram to obtain a high-resolution biochromatogram.
Preparative-scale fractionation was performed using an Agilent 1100 series instrument equipped with a multiple wavelength detector, an autosampler and two preparative-scale solvent delivery pumps. The column used was a Phenomenex C18(2) Luna (250 mm × 21.2 mm, 5 μm particle size, 100 Å pore size) and the gradient method was as follows: 0 min, 20% B; 27 min, 35% B; 37 min, 40% B; 40 min, 100% B; 46 min, 100% B; 47 min, 20% B; 52 min, 20% B using a binary mixture of water–acetonitrile (95:5 v/v) as eluent A and acetonitrile–water (95:5 v/v) as eluent B, both acidified with 0.1% formic acid.

[2] = system: α-glucosidase; experiment: High-resolution α-glucosidase inhibition profiling (biochromatogram) of HPLC microfractions; assay type: biochemical, Saccharomyces cerevisiae; set-up: α-glucosidase inhibitory activity of peak in biochromatogram / α-glucosidase inhibitory activity, direct readout from the biochromatogram: concentration or dose not given beside the values; settings: for α-glucosidase inhibitory activity, direct readout from the biochromatogram: biochromatogram of crude defatted extract; for α-glucosidase inhibitory activity, direct readout from the biochromatogram / α-glucosidase inhibitory activity of peak in biochromatogram: relative inhibition, quantity unknown; for α-glucosidase inhibitory activity of peak in biochromatogram: microfractionation of fraction Fr.2 on PFP column; for α-glucosidase inhibitory activity as seen in the biochromatogram of E. crotonoides extract (in words): crude defatted ethyl acetate extract, C18 column
Protocol: Thus, 0.4 mg of the extract of E. crotonoides was subjected to analytical-scale reversed-phase HPLC, and the eluate in the retention time range from 3.0 to 78.0 min was fractionated into four 96-well microplates, yielding a resolution of 4.7 data points/min (the first column of each microplate was reserved for blanks and controls). This was followed by evaporation of the HPLC eluate from all wells, reconstitution in buffer containing 10% DMSO, and assessment of the α-glucosidase inhibitory activity of all wells (final concentration of DMSO during assay = 5%). The inhibitory activities (calculated as percentage inhibition) were plotted against the retention time from the microfractionation to give the high-resolution α-glucosidase inhibition profile (biochromatogram) shown in Figure 1. The HPLC chromatogram at 254 nm is shown with the blue line (top) and the high-resolution α-glucosidase inhibition profile shown with the red line at the bottom. The high resolution of the biochromatogram allows direct correlation of HPLC peaks and peaks in the biochromatogram—thereby pinpointing peaks corresponding to compounds with α-glucosidase inhibitory activity.
as §1
as §2, with “The α-glucosidase inhibition of each well was plotted at their respective retention times underneath the HPLC chromatogram to obtain a high-resolution biochromatogram.” left out

[3] = molecular target: α-glucosidase; set-up: method as in PMID 25172103; settings: known as a weak inhibitor; cited from earlier work

Row | IC50 [1] [µM] | α-glucosidase inhibitory activity of peak in biochromatogram [2] [%] | α-glucosidase inhibitory activity as seen in the biochromatogram of E. crotonoides extract (in words) [2] | Structure (SMILES) | further results
1 | 5.93 ± 0.12 |  |  | CCCCOC(=O)[C@]1(O)C[C@@H](OC(=O)/C=C/c2ccc(O)c(O)c2)[C@@H](O)[C@H](OC(=O)/C=C/c2ccc(O)c(O)c2)C1 [Compound 26, 3,5-di-O-caffeoylquinic acid n-butyl ester] | α-glucosidase inhibitory activity, direct readout from the biochromatogram [2]: 92%
2 | 59.6 ± 1.32 | 32 |  | O=c1cc(-c2ccc(O)c(O)c2)oc2cc(O)cc(O)c12 [Compound 19, luteolin] | 
3 | 20.4 ± 1.3 | 70 |  | COc1c(-c2ccc(O)c(O)c2)oc2cc(O)cc(O)c2c1=O [Compound 20, quercetin 3-methyl ether] | 
4 |  |  | no or very low | O=C(/C=C/c1ccc(O)c(O)c1)O[C@H]1[C@H](O)C[C@](O)(C(=O)O)C[C@H]1OC(=O)/C=C/c1ccc(O)c(O)c1 [Compound 8, 3,4-di-O-caffeoylquinic acid] | 
5 |  | 82 |  | O=c1c(O)c(-c2ccc(O)c(O)c2)oc2cc(O)cc(O)c12 [Compound 16, quercetin] | 
6 |  |  | minor | O=C(/C=C/c1ccc(O)c(O)c1)OC[C@H]1O[C@@H](Oc2c(-c3ccc(O)c(O)c3)oc3cc(O)cc(O)c3c2=O)[C@H](O)[C@@H](O)[C@@H]1O [Compound 12, quercetin-3-O-(6″-(E)-O-caffeoyl)-β-D-glucoside] | 
7 |  |  | no or very low; also recorded: minor | O=C(/C=C/c1ccc(O)c(O)c1)O[C@@H]1[C@H](O)C[C@@](O)(C(=O)O)C[C@H]1OC(=O)/C=C/c1ccc(O)c(O)c1 [Compound 11, 4,5-di-O-caffeoylquinic acid] | IC50 [3]: > 100 µM
8 | > 210 | 23 |  | O=C(/C=C/c1ccc(O)cc1)OC[C@H]1O[C@@H](Oc2c(-c3ccc(O)cc3)oc3cc(O)cc(O)c3c2=O)[C@H](O)[C@@H](O)[C@@H]1O [Compound 17, trans-tiliroside] | Inhibition at 210 μM ([1]; 210 μM): 4.5%
9 |  |  | no or very low | O=C(/C=C/c1ccc(O)c(O)c1)O[C@@H]1C[C@](O)(C(=O)O)C[C@@H](OC(=O)/C=C/c2ccc(O)c(O)c2)[C@H]1O [Compound 9, 3,5-di-O-caffeoylquinic acid] | 
10 | 5.2 ± 0.3 |  |  | CCCCOC(=O)[C@]1(O)C[C@@H](O)[C@@H](OC(=O)/C=C/c2ccc(O)c(O)c2)[C@H](OC(=O)/C=C/c2ccc(O)c(O)c2)C1 [Compound 29, 4,5-di-O-caffeoylquinic acid n-butyl ester] | α-glucosidase inhibitory activity, direct readout from the biochromatogram [2]: 57%

Reference: publication PMC6273868, “High-Resolution α-Glucosidase Inhibition Profiling Combined with HPLC-HRMS-SPE-NMR for Identification of Antidiabetic Compounds in Eremanthus crotonoides (Asteraceae)” (Molecules, 2016)
